From patent US20190381014A1, “ISOQUINOLINONE COMPOUNDS AND USE THEREOF IN PREPARATION OF ANTIVIRAL DRUGS” (Ginkgo Pharma Co., Ltd., priority 2016, published 2019)

Tests used:
HBsAg = HBsAg inhibition in HepG2.2.15 culture supernatant (ELISA); format: cell-based, HBV; conditions: Hepatitis B virus, HepG2.2.15, 192 h, read-out: Activity in HBsAg inhibition, EC50
Protocol: Test method: HepG2.2.15 cell line was seeded into 96-well plates at 1.5×10^4 cells/well. On the following day, the cells were treated with a three-fold serial dilution series of the compounds at eight concentration points, and 2 duplicate wells were determined in parallel. The final DMSO concentration in the culture solution was 0.5%. On the fifth day, the culture solution was replaced with fresh solution containing the compounds. On the eighth day, the culture supernatant was collected and the HBsAg in the culture supernatant was detected by ELISA. The percent inhibition was calculated with respect to the blank control.

[1] = Rat PK study (single IV and PO dose, plasma LC-MS/MS); format: in vivo, S-D rats; conditions: for F / AUC(0-t) / clearance / half-life / Vd / Cmax / Tmax: S-D rats; for F: PO 10 mg/kg vs IV 2 mg/kg; for AUC(0-t) / clearance / half-life / Vd / Cmax / Tmax: Sprague-Dawley (S-D), rat, plasma; for Vd: read-out: Vdss; for PK properties (overall judgement): combining PK data of IV and PO
Protocol: Preparation of intravenous injection formulation: accurately weighing 2-3 mg of a sample, adding appropriate amount of N,N-dimethylacetamide (DMA), vortex oscillating to completely dissolve the solid matter; adding an appropriate volume of 30% Solutol HS-15 aqueous solution, vortex oscillating and then adding saline, so that DMA: 30% Solutol HS-15:saline=20:20:60 (v/v/v), vortex oscillating the liquid to mix the liquid evenly, and filtering to obtain a pharmaceutical preparation of a concentration of 0.4 mg·mL^−1.
Preparation of oral formulation: accurately weighing 10 mg of a sample, adding an appropriate volume of 0.5% CMC-Na aqueous solution, vortex oscillating and ultrasounding to mix the liquid evenly to obtain a pharmaceutical preparation of a concentration of 1 mg·mL^−1.
The formulations were freshly prepared on the day of administration, and samples were reserved and taken for the determination of the actual concentration.
S-D rats of Group A were given a single intravenous injection (IV) of 2 mg·kg^−1, respectively; S-D rats of Group B were given a single gavage administration (PO) of 10 mg·kg^−1, respectively. Approximately 0.15 mL of blood sample will was collected via jugular vein into EDTA-K2 tubes at the designated time points of pre-dose, and 5 min (IV only), 15 min, 30 min, 1 h, 2 h, 4 h, 8 h, 12 h and 24 h post dose. All of the whole blood samples were centrifuged for 10 min (at 5500 rpm) to obtain plasma samples, which were stored at a refrigerator below −30˜−10° C. Concentrations of compounds in the plasma samples were analyzed using a LC-MS/MS method. The pharmacokinetic parameters were calculated using non-compartment model in Pharsight Phoenix 7.0 software. See Tables 2a and 2b for the results.

SMILES	EC50 (HBsAg) [nM]	F [1] [%]	AUC(0-t) ([1]; IV 2 mg/kg) [ng·h/mL]	clearance ([1]; IV 2 mg/kg) [mL/min/kg]	half-life ([1]; IV 2 mg/kg) [min]	Vd ([1]; IV 2 mg/kg) [L/kg]	AUC(0-t) ([1]; PO 10 mg/kg) [ng·h/mL]	Cmax ([1]; PO 10 mg/kg) [ng/mL]	Tmax ([1]; PO 10 mg/kg) [h]	half-life ([1]; PO 10 mg/kg) [min]	PK properties (overall judgement) [1]
COCCCOc1cc2c(cc1OC)-c1cc(=O)c(C(=O)O)cn1[C@H](C(C)C)C2 [A, reference compound]	4.06	21.5	1610	20.8	56.4	1.17	1760	475	2.2	90	
COc1cc2c(cc1O[C@@H]1CCOC1)C[C@@H](C(C)C)n1cc(C(=O)O)c(=O)cc1-2 [Compound I-2, (S)-6-isopropyl-10-methoxy-2-oxo-9-(((R)-tetrahydrofuran-3-yl)oxy)-6,7-dihydro-2H-pyrido[2,1-α]isoquinoline-3-carboxylic acid]	1.82	18.9	1800	18.6	108	1.51	1690	437	1.2	96	good PK properties
COc1cc2c(cc1O[C@H]1C[C@H](OC)C1)C[C@@H](C(C)C)n1cc(C(=O)O)c(=O)cc1-2 [Compound I-5, (S)-6-isopropyl-10-methoxy-9-((1R,3S)-3-methoxycyclobutoxy)-2-oxo-6,7-dihydro-2H-pyrido[2,1-α]isoquinoline-3-carboxylic acid]	1.61	37.7	2940	11.3	58.8	0.858	5500	1340	0.5	102	good PK properties
COCC1(COc2cc3c(cc2OC)-c2cc(=O)c(C(=O)O)cn2[C@H](C(C)C)C3)CC1 [Compound I-6, (S)-6-isopropyl-10-methoxy-9-((1-(methoxymethyl)cyclopropyl)methoxy)-2-oxo-6,7-dihydro-2H-pyrido[2,1-α]isoquinoline-3-carboxylic acid]	3.15	45.8	1020	33.6	42.6	1.74	2310	1490	0.58	114	good PK properties
COCC1(COc2cc3c(cc2OC)-c2cc(=O)c(C(=O)O)cn2[C@H](C(C)C)C3)COC1 [Compound I-7, (S)-6-isopropyl-10-methoxy-9-((3-(methoxymethyl)oxetan-3-yl)methoxy)-2-oxo-6,7-dihydro-2H-pyrido[2,1-α]isoquinoline-3-carboxylic acid]	3.82	8.1	1180	28.8	40.2	1.39	470	103	1	84	
COc1cc2c(cc1OCC1CC(OC)C1)C[C@@H](C(C)C)n1cc(C(=O)O)c(=O)cc1-2 (stereo partly drawn) [Compound I-8, (S)-6-isopropyl-10-methoxy-9-((3-methoxycyclobutyl)methoxy)-2-oxo-6,7-dihydro-2H-pyrido[2,1-α]isoquinoline-3-carboxylic acid]	1.54	27.1	2150	15.7	53.4	1.05	3030	739	0.92	78	good PK properties
COc1cc2c(cc1OCCCC(C)=O)C[C@@H](C(C)C)n1cc(C(=O)O)c(=O)cc1-2 [Compound I-9, (S)-6-isopropyl-10-methoxy-2-oxo-9-((4-oxopentyl)oxy)-6,7-dihydro-2H-pyrido[2,1-α]isoquinoline-3-carboxylic acid]	3.26	4.3	504	65.9	17.4	0.942	105	79.9	0.33	108	
COc1cc2c(cc1OC1CCCC1)C[C@@H](C(C)C)n1cc(C(=O)O)c(=O)cc1-2 [Compound I-10, (S)-9-(cyclopentyloxy)-6-isopropyl-10-methoxy-2-oxo-6,7-dihydro-2H-pyrido[2,1-α]isoquinoline-3-carboxylic acid]	3.01	11.7	1490	22.7	52.8	1.41	869	265	1	78	
COc1cc2c(cc1C#CC1CC1)C[C@@H](C(C)C)n1cc(C(=O)O)c(=O)cc1-2 [Compound I-11, (S)-9-(cyclopropylethynyl)-6-isopropyl-10-methoxy-2-oxo-6,7-dihydro-2H-pyrido[2,1-α] isoquinoline-3-carboxylic acid]	2.57	11.5	946	35.9	34.8	1.37	461	119	1.8	192	
COc1cc2c(cc1O[C@H]1C[C@@H](OC)C1)C[C@@H](C(C)C)n1cc(C(=O)O)c(=O)cc1-2 [Compound I-19, (S)-6-isopropyl-10-methoxy-9-((1 s, 3R)-3-methoxycyclobutoxy)-2-oxo-6,7-dihydro-2H-pyrido[2,1-α]isoquinoline-3-carboxylic acid]	2.89										
COc1cc2c(cc1OC1CCC1)C[C@@H](C(C)C)n1cc(C(=O)O)c(=O)cc1-2 [Compound I-20, (S)-9-cyclobutoxy-6-isopropyl-10-methoxy-2-oxo-6,7-dihydro-2H-pyrido[2,1-α]isoquinoline-3-carboxylic acid]	2.56										
